{"source": "patent US20190060298A1", "about": "“NEW DRUG FOR THE TREATMENT AND/OR PREVENTION OF DEPRESSIVE DISORDERS” (SORBONNE UNIVERSITE, priority 2013, published 2019)", "format_in_all_cases": "in vivo, Sprague-Dawley rats", "key": {"oxidative stress": {"tested_on": "oxidative stress", "assay": "Oxidative stress state in hippocampus after chronic social defeat", "settings": "vulnerable (V) rats; 288 μmol/kg/day via osmotic mini-pump for 15 days from D11; measured D31", "description": "The social-defeat procedure (CSD) (D-3 to DO) was performed as previously described (see Becker et al., 2001; Blugeot et al., 2011).\nBriefly, this procedure involved subjecting the same pairs of residents and intruders to four daily conditioning sessions. The 45-min conditioning sessions were divided into two consecutive periods. During period I (30 min), intruders were placed individually in a protective cage within the resident animal's home cage. The protective cage allowed unrestricted visual, auditory, and olfactory contact with the resident but prevented close physical contact. […]\nThe animals were decapitated and the left hippocampus was homogenized in ice-cold buffer (20 mM Hepes pH 7.2, 1 mM EGTA, 210 mM mannitol, 70 mM sucrose). […] Catalase and total SOD activities were immediately determined with commercially available kits (Cayman Chemical, Ann Arbor, Mich., USA), in accordance with the manufacturer's instructions. SOD and catalase specific activities are expressed as units per mg of hippocampus and as nmoles of formaldehyde formed per minute per mg of hippocampal tissue, respectively. […]\nFor the TBARS assay, protease inhibitors (50 μl/ml), DOC (1%), SDS (0.1%) and Triton® X-100 (0.5%) were added immediately in ice-cold buffer. […] TBARS concentration was calculated from an MDA standard curve and normalized. […]"}, "lipid peroxidation (MDA)": {"tested_on": "lipid peroxidation (MDA)", "assay": "Lipid peroxidation (TBARS/MDA) in hippocampus", "settings": "V rats; 288 μmol/kg/day, 15 days from D11; D31", "description": "(§1) The right hippocampus was homogenized in ice-cold buffer (Tris-HCl 50 mM pH 7.5, 150 mM NaCl, 1 mM EDTA) and used for TBARS and glutathione peroxidase (GPx) assays.\n(§2) For the TBARS assay, protease inhibitors (50 μl/ml), DOC (1%), SDS (0.1%) and Triton® X-100 (0.5%) were added immediately in ice-cold buffer. For the GPx assay, 0.1 M dithiothreitol was added immediately in ice-cold buffer. The homogenates were centrifuged and the supernatants were retained for analysis. Lipid peroxidation was assessed by measuring TBARS formation with a commercial assay kit (Cayman Chemical, Ann Arbor, Mich., USA), in accordance with the manufacturer's instructions. TBARS concentration was calculated from an MDA standard curve and normalized. Total GPx activity in the homogenate was measured in accordance with the kit manufacturer's instructions (Cayman Chemical, Ann Arbor, Mich., USA). GPx specific activity is expressed as nmoles of NADPH consumed per minute per mg of hippocampal tissue. No difference in hippocampal weight was observed between defeated, vulnerable, non-vulnerable and control animals.\n(§3) Tempol (4-hydroxy-2,2,6,6-tetramethylpiperidine 1-oxyl), which was administered at a dose of 288 μmol/kg/day [Sigma-Aldrich, St Louis, Mo., USA]), was dissolved in distilled water and delivered via ALZET osmotic mini-pumps (2002, Charles River Laboratories, France). […]"}, "[1]": {"tested_on": "glutathione peroxidase (GPx)", "assay": "Glutathione peroxidase activity in hippocampus", "settings": "288 μmol/kg/day, 15 days from D11; D31", "description": "as §1, §2, §3"}}, "data": [{"smiles": "CC1(C)CC(O)CC(C)(C)N1[O]", "note": "[TEMPOL, 4-hydroxy-2,2,6,6-tetramethylpiperidin-1-oxyl]", "values": [{"measurement": "oxidative stress", "setting": "oxidative stress", "value": "decreased the oxidative stress in V animals"}, {"measurement": "lipid peroxidation (MDA)", "setting": "lipid peroxidation (MDA)", "value": "lack of"}, {"measurement": "glutathione peroxidase (GPx) activity", "setting": "[1]", "value": "mild effect"}]}]}
